Experiment [1] concerns smooth muscle cells. Put plainly: Inhibition of the proliferation of smooth muscle cells (3H-thymidine incorporation). The class given is cell-based, rats. The note with it: rat aorta smooth muscle cells; inhibition of thymidine incorporation produced by 10% FCS; Table B. The protocol: Investigation of the Inhibition of the Proliferation of Smooth Muscle Cells by the Compounds According to the Invention
To determine the antiprofilerative action of the compounds, smooth muscle cells are used which are obtained from aortas of rats by the media explant technique [R. Ross, J. Cell. Biol. 50, 172, 1971]. The cells are inoculated in suitable culture dishes, as a rule 96-hole plates, and cultured in 5% CO2 at 37° C. for 2-3 days in medium 199 containing 7.5% FCS and 7.5% NCS, 2 mM L-glutamine and 15 mM HEPES, pH 7.4. The cells are then synchronized by withdrawal of serum for 2-3 days and then stimulated into growth with serum or other factors. Test compounds are simultaneously added. After 16-20 hours, 1 μCi ^3 H-thymidine is added and after a further 4 hours the incorporation of this substance into the TCA-precipitatable DNA of the cells is determined. To determine the IC50 values, the active compound concentration is determined which, on sequential dilution of the active compound, causes semi-maximal inhibition of the thymidine incorporation produced by 10% FCS.
Background: Incorporation of labelled thymidine or its analogues reports DNA synthesis.

Experiment [2] has as its target T1, Angiotensin II Receptor (Bos taurus, UniProt P25104).
T1 construct: partially purified membrane fractions of bovine AGC using radioactive angiotensin II; from tissue; host or cells: bovine adrenal gland cortex, partially purified membrane fractions
T1 sequence (P25104 1-359): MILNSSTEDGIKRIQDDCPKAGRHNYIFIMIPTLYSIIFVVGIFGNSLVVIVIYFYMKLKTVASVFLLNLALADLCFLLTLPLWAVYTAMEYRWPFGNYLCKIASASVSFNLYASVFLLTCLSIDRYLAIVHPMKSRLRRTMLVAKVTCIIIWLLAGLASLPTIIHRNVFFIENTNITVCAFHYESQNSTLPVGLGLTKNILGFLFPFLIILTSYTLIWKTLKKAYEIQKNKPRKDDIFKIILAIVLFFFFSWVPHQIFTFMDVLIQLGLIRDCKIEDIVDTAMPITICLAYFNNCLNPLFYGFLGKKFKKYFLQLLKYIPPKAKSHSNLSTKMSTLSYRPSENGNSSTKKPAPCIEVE
Put plainly: Inhibition of the specific binding of radioactive angiotensin II to the angiotensin II receptor in membrane fractions of the adrenal gland cortex (bovine). The note with it: bovine adrenal gland cortex membranes; 3H-angiotensin II (3-5 nM); 60 min, room temperature; Table A. The text has this: Interaction of the Compounds According to the Invention with the Angiotensin II Receptor in Membrane Fractions of the Adrenal Gland Cortex (Bovine)
Bovine adrenal gland cortices (AGC), which have been freshly removed and carefully freed from gland medulla, are comminuted in sucrose solution (0.32M) with the aid of an Ultra-Turrax (Janke & Kunkel, Staufen i.B.) to give a coarse membrane homogenate and partially purified in two centrifugation steps to give membrane fractions. The receptor binding investigations are carried out on partially purified membrane fractions of bovine AGC using radioactive angiotensin II in an assay volume of 0.25 ml, which specifically contains the partially purified membranes (50-80 μg), ^3 H-angiotensin II (3-5 nM), test buffer solution (50 mM Tris, pH 7.2), 5 mM MgCl2 and the substances to be investigated. After an incubation time of 60 min at room temperature, the unbound radioactivity of the samples is separated by means of moistened glass fibre filters (Whatman GF/C) and the bound radioactivity is measured spectrophotometrically in a scintillation cocktail after washing the protein with ice-cold buffer solution (50 mM Tris/HCl, pH 7.4, 5% PEG 6000). […]

As usually defined, the IC50 is the concentration at which inhibition is half-maximal. As to `CCCCc1nc(Cl)c(CO)n1Cc1ccc(C(C(=O)N2CCC[C@H]2C(=O)OC(C)(C)C)C2CCCC2)cc1` (single isomer, unassigned) [Example 14], in experiment [1], the midpoint of inhibition, the IC50, lay at 450 nM.
As to `CCCCc1nc(Cl)c(C(=O)O)n1Cc1ccc(C(C(=O)N2CCC[C@H]2C(N)=O)C2CCCC2)cc1` (stereo partly drawn) [Example 7, 2-[4-(2-Butyl-4-chloro-5-carboxy-imidazol-1-yl-methyl)-phenyl]-2-cyclopentylacetic acid (L-prolinamido) amide], the IC50 in experiment [2] came out at 580 nM.
For `CCCCc1nc(Cl)c(CO)n1Cc1ccc(C(C(=O)N2CCC[C@H]2C(=O)N[C@H](CO)c2ccccc2)C2CCCC2)cc1` (stereo partly drawn) [Example 9, 2-[4-(2-Butyl-4-chloro-5-hydroxymethyl-imidazol-1-yl-methyl)phenyl]-2-cyclopentylacetic acid (L-prolinephenylglycinolamido) amide], the IC50 in experiment [1] was determined as 860 nM.
On to `CCCCc1nc(Cl)c(C(=O)O)n1Cc1ccc(C(C(=O)N2CCC[C@H]2C(=O)OCc2ccccc2)C2CCCC2)cc1` (stereo partly shown) [Example 12], for which, in experiment [2], the IC50 is 290 nM.

For the origin of these results see patent US5459156A, “Imidazolyl-substituted phenylacetic acid prolinamides” (Bayer Aktiengesellschaft, priority 1993, dated 1995).
